Values of other authors, collected in patent US20120058097A1, “COMPOSITIONS INCLUDING A SODIUM CHANNEL BLOCKER AND A B VITAMIN MOLECULE AND METHODS OF USE THEREOF” (MS THERAPEUTICS LIMITED, priority 2010, published 2012).

Key:
[1] = in vivo
[2] = test system: people with secondary progressive multiple sclerosis

SMILES: Nc1nnc(-c2cccc(Cl)c2Cl)c(N)n1 [lamotrigine, 3,5-diamino-6-(2,3-dichlorophenyl)-1,2,4-triaz-ine]
- half life [1]: 23 to 36 h
- deterioration of walking speed ([2]; compared to the control group, 120 people with secondary progressive multiple sclerosis): approximately halve the deterioration of walking speed
- MRI measurements of brain volume ([2]; primary outcome measure, 2 year trial): early reduction in brain volume which was reversible over the 2 year course of the trial
